From patent publication US8048892B2, “Azaquinolone based compounds exhibiting prolyl hydroxylase inhibitory activity, compositions, and uses thereof” (Amgen Inc., priority 2006, dated 2011)

Each compound was assayed against HIF PHD2 (Homo sapiens, UniProt Q9GZT9) (assay: PHD2 inhibition assay (TR-FRET, VCB-Eu detection of hydroxylated P564-HIF1α peptide)). Conditions: 2 nM PHD2, 100 nM P564-HIF1α peptide, 0.25 μM 2-oxoglutarate.
Format: biochemical
Experimental: Inhibition of HIF PHD2 activity was quantified utilizing the TR-FRET technology. HIF PHD2 catalyzes a hydroxyl modification on the proline residue of the P564-HIF1α peptide substrate (Biotin-DLEMLAPYIPMDDDFQL (SEQ ID NO: 7)) resulting in recognition and binding of the europylated Von Hippel-Lindau protein (pVHL), elongin B and elongin C heterotrimeric (VCB-Eu) complex.
The PHD2 inhibition assay was executed by addition of freshly dissolved FeCl2 to 178.57 μM (100 μM final concentration) in PHD2 Reaction Buffer containing 30 mM MES, pH 6, 10 mM NaCl, 0.25% Brij-35, 0.01% BSA, and 1% DMSO. 28 μL of the iron solution and 2 μL of inhibitor compounds serially diluted in 100% DMSO (5% DMSO final) were added to black polypropylene 96-well microtiter plates. To that, 10 μL of 10 nM PHD2 (2 nM final) was added to all wells of the plate except for the 8 wells of column 12 (LO control), and allowed to incubate at room temperature on the shaker for one hour. Column 6 was the HI control containing PHD2 enzyme and 5% DMSO vehicle, but no inhibitor compound. To initiate the PHD2 enzymatic reaction, 10 μL of a solution containing 500 nM P564-HIF1α peptide (100 nM final), 10 mM ascorbic acid (2 mM final), and 1.25 μM 2-oxoglutarate (α-ketoglutarate; 0.25 μM final) in PHD2 Reaction Buffer was added to all wells of the plate and allowed to incubate on the shaker at room temperature for one hour.
The reaction was terminated by addition of 25 μL TR-FRET Buffer (50 mM TRIS-HCl, pH 9, 100 mM NaCl, 0.05% BSA, and 0.5% Tween-20) containing 150 mM succinate (product inhibitor; 50 mM final), 75 nM streptavidin-APC (25 nM final), and 7.5 nM VCB-Eu (2.5 nM final). The TR-FRET detection reagents were placed on a shaker for 1 hour to reach binding equilibrium before reading on the Discovery platform (PerkinElmer). Europium is excited at 315 nm and phosphoresces at 615 nm with a large Stoke's shift. APC, in turn, emits at 655 nm upon excitation at 615 nm. The TR-FRET signal is measured as the ratio of the APC 655 nm signal divided by the internal europium reference 615 nm emission signal.
The POC (percentage of control) was determined by comparing the signal from hydroxylated peptide substrate in the enzyme reaction containing inhibitor compound with that from PHD2 enzyme with DMSO vehicle alone (HI control), and no enzyme (LO control). POC was calculated using the formula: % control (POC)=(cpd−average LO)/(average HI−average LO)*100. Data (consisting of POC and inhibitor concentration in μM) was fitted to a 4-parameter equation (y=A+((B−A)/(1+((x/C)^D))), where A is the minimum y (POC) value, B is the maximum y (POC), C is the x (cpd concentration) at the point of inflection and D is the slope factor) using a Levenburg-Marquardt non-linear regression algorithm.

HIF PHD2, sequence (Q9GZT9 whole entry): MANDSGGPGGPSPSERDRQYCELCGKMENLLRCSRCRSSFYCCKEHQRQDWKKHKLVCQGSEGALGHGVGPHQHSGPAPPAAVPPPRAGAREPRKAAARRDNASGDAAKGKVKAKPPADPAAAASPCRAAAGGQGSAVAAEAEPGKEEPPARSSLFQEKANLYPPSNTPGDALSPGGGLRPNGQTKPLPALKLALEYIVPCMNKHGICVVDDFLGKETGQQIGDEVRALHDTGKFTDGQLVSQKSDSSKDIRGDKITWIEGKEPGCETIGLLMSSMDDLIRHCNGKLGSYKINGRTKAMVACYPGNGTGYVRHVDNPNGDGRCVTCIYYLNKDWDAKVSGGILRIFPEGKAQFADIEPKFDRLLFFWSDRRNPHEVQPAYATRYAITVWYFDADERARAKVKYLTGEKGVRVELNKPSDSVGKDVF

| IC50 [nM] | SMILES |
| --- | --- |
| < 50 | Cn1c(=O)c(C(=O)NCC(=O)O)c(O)c2cc(-c3cccnc3)cnc21 [Example 44, 2-(4-Hydroxy-1-methyl-2-oxo-6-(pyridin-3-yl)-1,2-dihydro-1,8-naphthyridine-3-carboxamido)acetic acid] |
| < 50 | Cc1ncccc1-c1cnc2c(c1)c(O)c(C(=O)NCC(=O)O)c(=O)n2C [Example 45, 2-(4-Hydroxy-1-methyl-6-(2-methylpyridin-3-yl)-2-oxo-1,8-naphthyridine-3-carboxamido)acetic acid] |
| 100 to 500 | Cn1c(=O)c(C(=O)NCC(=O)O)c(O)c2cc(-c3ccccc3)cnc21 [Example 46, 2-(4-Hydroxy-1-methyl-2-oxo-6-phenyl-1,2-dihydro-1,8-naphthyridine-3-carboxamido)acetic acid] |
| < 50 | Cc1nc(F)ccc1-c1cnc2c(c1)c(O)c(C(=O)NCC(=O)O)c(=O)n2C [Example 47, 2-(6-(6-Fluoro-2-methylpyridin-3-yl)-4-hydroxy-1-methyl-2-oxo-1,2-dihydro-1,8-naphthyridine-3-carboxamido)acetic acid] |
| < 50 | Cc1ccc(-c2cnc3c(c2)c(O)c(C(=O)NCC(=O)O)c(=O)n3C)c(F)n1 [Example 48, N-((6-(2-Fluoro-6-methyl-3-pyridinyl)-4-hydroxy-1-methyl-2-oxo-1,2-dihydro-1,8-naphthyridin-3-yl)carbonyl)glycine] |
| 100 to 500 | CN(C)c1ccc(-c2cnc3c(c2)c(O)c(C(=O)NCC(=O)O)c(=O)n3C)cc1 [Example 49, N-((6-(4-(Dimethylamino)phenyl)-4-hydroxy-1-methyl-2-oxo-1,2-dihydro-1,8-naphthyridin-3-yl)carbonyl)glycine] |
| < 50 | CN(C)c1cccc(-c2cnc3c(c2)c(O)c(C(=O)NCC(=O)O)c(=O)n3C)c1 [Example 50, N-((6-(3-(Dimethylamino)phenyl)-4-hydroxy-1-methyl-2-oxo-1,2-dihydro-1,8-naphthyridin-3-yl)carbonyl)glycine] |
| < 50 | Cn1c(=O)c(C(=O)NCC(=O)O)c(O)c2cc(-c3ccc(F)nc3)cnc21 [Example 51, N-((6-(6-Fluoro-3-pyridinyl)-4-hydroxy-1-methyl-2-oxo-1,2-dihydro-1,8-naphthyridin-3-yl)carbonyl)glycine] |
| 100 to 500 | COc1ccc(-c2cnc3c(c2)c(O)c(C(=O)NCC(=O)O)c(=O)n3C)cn1 [Example 52, N-((4-Hydroxy-1-methyl-6-(6-(methyloxy)-3-pyridinyl)-2-oxo-1,2-dihydro-1,8-naphthyridin-3-yl)carbonyl)glycine] |
| < 50 | COc1ncccc1-c1cnc2c(c1)c(O)c(C(=O)NCC(=O)O)c(=O)n2C [Example 53, N-((4-Hydroxy-1-methyl-6-(2-(methyloxy)-3-pyridinyl)-2-oxo-1,2-dihydro-1,8-naphthyridin-3-yl)carbonyl)glycine] |
| 50 to 100 | Cn1c(=O)c(C(=O)NCC(=O)O)c(O)c2cc(-c3cccc(N4CCOCC4)c3)cnc21 [Example 54] |
| 50 to 100 | COc1cncc(-c2cnc3c(c2)c(O)c(C(=O)NCC(=O)O)c(=O)n3C)c1 [Example 55, N-((4-Hydroxy-1-methyl-6-(5-(methyloxy)-3-pyridinyl)-2-oxo-1,2-dihydro-1,8-naphthyridin-3-yl)carbonyl)glycine] |
| 50 to 100 | CN1CCOc2cc(-c3cnc4c(c3)c(O)c(C(=O)NCC(=O)O)c(=O)n4C)ccc21 [Example 56, N-((4-Hydroxy-1-methyl-6-(4-methyl-3,4-dihydro-2H-1,4-benzoxazin-7-yl)-2-oxo-1,2-dihydro-1,8-naphthyridin-3-yl)carbonyl)glycine] |
| < 50 | Cn1c(=O)c(C(=O)NCC(=O)O)c(O)c2cc(-c3ccccc3N3CCOCC3)cnc21 [Example 57, N-((4-Hydroxy-1-methyl-6-(2-(4-morpholinyl)phenyl)-2-oxo-1,2-dihydro-1,8-naphthyridin-3-yl)carbonyl)glycine] |
| 50 to 100 | Cn1c(=O)c(C(=O)NCC(=O)O)c(O)c2cc(-c3ccccc3N3CCCCC3)cnc21 [Example 58, N-((4-Hydroxy-1-methyl-2-oxo-6-(2-(1-piperidinyl)phenyl)-1,2-dihydro-1,8-naphthyridin-3-yl)carbonyl)glycine] |
| 50 to 100 | Cn1c(=O)c(C(=O)NCC(=O)O)c(O)c2cc(-c3cccc(N4CCCCC4)c3)cnc21 [Example 59, N-((4-Hydroxy-1-methyl-2-oxo-6-(3-(1-piperidinyl)phenyl)-1,2-dihydro-1,8-naphthyridin-3-yl)carbonyl)glycine] |
| 100 to 500 | Cn1c(=O)c(C(=O)NCC(=O)O)c(O)c2cc(-c3cccc(N4CCCC4)c3)cnc21 [Example 60, N-((4-Hydroxy-1-methyl-2-oxo-6-(3-(1-pyrrolidinyl)phenyl)-1,2-dihydro-1,8-naphthyridin-3-yl)carbonyl)glycine] |
| < 50 | Cn1c(=O)c(C(=O)NCC(=O)O)c(O)c2cc(-c3cncnc3)cnc21 [Example 61, N-((4-Hydroxy-1-methyl-2-oxo-6-(5-pyrimidinyl)-1,2-dihydro-1,8-naphthyridin-3-yl)carbonyl)glycine] |
| < 50 | CN(C)c1ccc(-c2cnc3c(c2)c(O)c(C(=O)NCC(=O)O)c(=O)n3C)cn1 [Example 62, N-((6-(6-(Dimethylamino)-3-pyridinyl)-4-hydroxy-1-methyl-2-oxo-1,2-dihydro-1,8-naphthyridin-3-yl)carbonyl)glycine] |
| < 50 | Cn1c(=O)c(C(=O)NCC(=O)O)c(O)c2cc(-c3ccc(N4CCOCC4)cc3)cnc21 [Example 63, N-((4-Hydroxy-1-methyl-6-(4-(4-morpholinyl)phenyl)-2-oxo-1,2-dihydro-1,8-naphthyridin-3-yl)carbonyl)glycine] |
| 50 to 100 | COc1ncc(-c2cnc3c(c2)c(O)c(C(=O)NCC(=O)O)c(=O)n3C)cn1 [Example 64, 2-(4-Hydroxy-6-(2-methoxypyrimidin-5-yl)-1-methyl-2-oxo-1,2-dihydro-1,8-naphthyridine-3-carboxamido)acetic acid] |
| < 50 | Cn1c(=O)c(C(=O)NCC(=O)O)c(O)c2cc(-c3ccnc(F)c3)cnc21 [Example 65, 2-(6-(2-Fluoropyridin-4-yl)-4-hydroxy-1-methyl-2-oxo-1,2-dihydro-1,8-naphthyridine-3-carboxamido)acetic acid] |
| < 50 | Cn1c(=O)c(C(=O)NCC(=O)O)c(O)c2cc(C3CCCCC3)cnc21 [Example 66, 2-(6-Cyclohexyl-4-hydroxy-1-methyl-2-oxo-1,2-dihydro-1,8-naphthyridine-3-carboxamido)acetic acid] |
| < 50 | Cn1c(=O)c(C(=O)NCC(=O)O)c(O)c2cc(C3=CCCCC3)cnc21 [Example 67, 2-(6-Cyclohexenyl-4-hydroxy-1-methyl-2-oxo-1,2-dihydro-1,8-naphthyridine-3-carboxamido)acetic acid] |
| 50 to 100 | Cn1c(=O)c(C(=O)NCC(=O)O)c(O)c2cc(C3CCCO3)cnc21 (centres unmarked) [Example 71, 2-(4-Hydroxy-1-methyl-2-oxo-6-(tetrahydrofuran-2-yl)-1,2-dihydro-1,8-naphthyridine-3-carboxamido)acetic acid] |
| 50 to 100 | CCCCc1cnc2c(c1)c(O)c(C(=O)NCC(=O)O)c(=O)n2C [Example 72, 2-(6-Butyl-4-hydroxy-1-methyl-2-oxo-1,2-dihydro-1,8-naphthyridine-3-carboxamido)acetic acid] |
| < 50 | C[C@H](NC(=O)c1c(O)c2cc(I)cnc2n(C)c1=O)C(=O)O [Example 73, (S)-2-(4-Hydroxy-6-iodo-1-methyl-2-oxo-1,2-dihydro-1,8-naphthyridine-3-carboxamido)propanoic acid] |
| 100 to 500 | C[C@H](NC(=O)c1c(O)c2cc(-c3ccccc3)cnc2n(C)c1=O)C(=O)O [Example 74, (S)-2-(4-Hydroxy-1-methyl-2-oxo-6-phenyl-1,2-dihydro-1,8-naphthyridine-3-carboxamido)propanoic acid] |
| < 50 | Cn1c(=O)c(C(=O)NCC(=O)O)c(O)c2cc(I)cnc21 [Example 75, 2-(4-Hydroxy-6-iodo-1-methyl-2-oxo-1,2-dihydro-1,8-naphthyridine-3-carboxamido)acetic acid] |
